Among the data in patent US11566007B2, “Ras inhibitors” (Revolution Medicines, Inc., priority 2019, dated 2023) are EC50 and IC50 values, retold here.

Experiment [1] deals with NCI-H358 cells (K-Ras G12C). In words: Potency assay: pERK in NCI-H358 cells. It counts as cell-based, human. Particulars: Homo sapiens, NCI-H358; H358 KRAS G12C; read-out: pERK EC50. In short, it runs like this: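 4 h cpd, 37 °C; 10-pt 3-fold series, 10 mM DMSO top stock, duplicates. Readout pERK: AlphaLISA SureFire Ultra or In-Cell Western (IR-800CW secondary, DRAQ5 DNA stain). IC50, 4-PL fit vs log conc.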

In a further experiment the target is KRAS G12D (Homo sapiens (Human), UniProt P01116+P62937, G12D). In words: Ras-Raf (BRAF RBD) disruption / FRET / MOA assay, KRAS G12D. In kind it is biochemical. To be noted: Ras-Raf disruption/FRET/MOA assay; class symbols; read-out: KRAS G12D FRET data IC50. An outline of the steps: (§1)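 Ras:RAF disruption was scored as a fall in TR-FRET ratio relative to DMSO. Compound ranged in 3-fold steps over 10 points from 30 μM final; incubation ran 3 h at 25° C, detection antibodies a further 1.5 h. Reported as IC50.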

A further experiment addresses NRAS Q61K (Homo sapiens (Human), UniProt P01111+P62937, Q61K). In words: Ras-Raf (BRAF RBD) disruption / FRET / MOA assay, NRAS Q61K. In kind it is biochemical. To be noted: NRAS Q61K; Ras-Raf disruption/FRET/MOA assay; read-out: IC50* NRAS Q61K FRET data. An outline of the steps:
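TR-FRET disruption of nucleotide-loaded Ras binding to BRAF RBD via compound-driven ternary complex with cyclophilin A. Compound as 10-point 3-fold series from 30 μM final, 3 h at 25° C, then anti-His Eu-W1024 (10 nM) and anti-GST allophycocyanin (50 nM) for 1.5 h. IC50 from decreased FRET ratio versus DMSO.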

Another experiment addresses KRAS G12S (Homo sapiens (Human), UniProt P01116+P62937, G12S). The experiment can be described thus: Ras-Raf (BRAF RBD) disruption / FRET / MOA assay, KRAS G12S. It counts as biochemical. Particulars: Ras-Raf disruption/FRET/MOA assay; class symbols; read-out: KRAS G12S FRET data IC50. In short, it runs like this:
as §1

Chain of KRAS G12D (P01116-2 other isoform, or with tags, fused parts or gaps G12D): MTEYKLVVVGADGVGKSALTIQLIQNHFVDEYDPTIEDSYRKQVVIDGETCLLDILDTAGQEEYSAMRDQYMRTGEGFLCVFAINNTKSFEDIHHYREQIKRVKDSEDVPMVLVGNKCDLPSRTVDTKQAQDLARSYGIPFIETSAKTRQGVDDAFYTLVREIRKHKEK
Chain of KRAS G12D (P62937 whole entry): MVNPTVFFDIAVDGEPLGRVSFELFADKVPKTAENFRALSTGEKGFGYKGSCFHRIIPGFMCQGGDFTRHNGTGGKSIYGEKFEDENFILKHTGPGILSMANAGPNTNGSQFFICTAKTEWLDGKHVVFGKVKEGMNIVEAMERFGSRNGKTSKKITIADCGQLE
Chain of NRAS Q61K (P01111 whole entry Q61K): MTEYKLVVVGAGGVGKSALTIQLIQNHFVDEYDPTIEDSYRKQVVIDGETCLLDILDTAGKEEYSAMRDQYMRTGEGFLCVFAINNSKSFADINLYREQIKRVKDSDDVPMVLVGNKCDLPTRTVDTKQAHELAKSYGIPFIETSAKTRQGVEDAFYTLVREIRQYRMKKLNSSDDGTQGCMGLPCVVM
Chain of NRAS Q61K (P62937 whole entry): as the sequence (P62937 whole entry) above
Chain of KRAS G12S (P01116-2 other isoform, or with tags, fused parts or gaps G12S): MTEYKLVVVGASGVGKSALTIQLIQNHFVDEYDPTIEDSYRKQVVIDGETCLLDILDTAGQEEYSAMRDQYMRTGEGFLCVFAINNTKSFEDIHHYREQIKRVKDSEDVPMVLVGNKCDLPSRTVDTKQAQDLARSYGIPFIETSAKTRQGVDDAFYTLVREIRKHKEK
Chain of KRAS G12S (P62937 whole entry): as the sequence (P62937 whole entry) above

A word on the EC50: it is the midpoint of the concentration-response curve. The term IC50 denotes the midpoint of a concentration-inhibition curve. As to `C=CC(=O)Nc1ccc(C(=O)N(C)[C@H](C(=O)N[C@H]2Cc3cc(O)cc(c3)-c3ccc4c(c3)c(c(-c3cccnc3[C@H](C)OC)n4CC)CC(C)(C)COC(=O)[C@@H]3CCCN(N3)C2=O)C(C)C)nc1` (atropisomer, axis not shown) [Example A252], the EC50 in experiment [1] is under 5 µM. The figures for the IC50 at KRAS G12D, on NRAS Q61K and at KRAS G12S were 1 to 10 µM, 1 to 10 µM and 0.1 to 1 µM, respectively.

For `C=CC(=O)N1CCN(C(=O)N(C)[C@H](C(=O)N[C@H]2Cc3cc(O)cc(c3)-c3ccc4c(c3)c(c(-c3cccnc3[C@H](C)OC)n4CC)CC(C)(C)COC(=O)[C@@H]3CCCN(N3)C2=O)C(C)C)CC1` (atropisomer, axis not shown) [Example A262], in experiment [1], the EC50 was under 5 µM. Besides, the results for the IC50 at KRAS G12D, on NRAS Q61K and on KRAS G12S were 0.1 to 1 µM, 0.01 to 0.1 µM and 0.01 to 0.1 µM, respectively.

For `C=CS(=O)(=O)N1CC2(CCN([C@H](C(=O)N[C@H]3Cc4cc(O)cc(c4)-c4ccc5c(c4)c(c(-c4cccnc4[C@H](C)OC)n5CC)CC(C)(C)COC(=O)[C@@H]4CCCN(N4)C3=O)C(C)C)C2=O)C1` (atropisomer, axis not shown) [Example A297], the EC50 in experiment [1] is under 5 µM. Further, the IC50 at KRAS G12D is 1 to 10 µM; at NRAS Q61K, 0.01 to 0.1 µM; on KRAS G12S, 0.1 to 1 µM.

As to `C=CC(=O)N1CC[C@H](C(=O)N(C)[C@H](C(=O)N[C@H]2Cc3cccc(c3)-c3ccc4c(c3)c(c(-c3cccnc3[C@H](C)OC)n4CC(F)(F)F)CC(C)(C)COC(=O)[C@@H]3CCCN(N3)C2=O)C(C)C)C1` (atropisomer, axis not shown) [Example A332], the EC50 in experiment [1] is under 5 µM. Also, the IC50 on KRAS G12D, on NRAS Q61K and on KRAS G12S was 1 to 10 µM each time.

For `C=CC(=O)N1CC[C@H](C(=O)N(C)[C@H](C(=O)N[C@H]2Cc3cc(F)cc(c3)-c3ccc4c(c3)c(c(-c3cccnc3[C@H](C)OC)n4CC)CC(C)(C)COC(=O)[C@@H]3CCCN(N3)C2=O)C(C)C)C1` (atropisomer, axis not shown) [Example A342], in experiment [1], the EC50 was under 5 µM. Moreover, the IC50 at KRAS G12D, on NRAS Q61K and on KRAS G12S was 1 to 10 µM in each case.

`CCn1c(-c2cccnc2[C@H](C)OC)c2c3cc(ccc31)-c1cccc(c1)C[C@H](NC(=O)[C@@H](COC1CN(C(=O)C#CC(C)(C)N3CCC3)C1)C(C)C)C(=O)N1CCC[C@H](N1)C(=O)OCC(C)(C)C2` (atropisomer, axis not shown) [Example A346]: in experiment [1], the EC50 is under 5 µM. Moreover, the half-inhibitory concentration (IC50) at KRAS G12D, on NRAS Q61K and at KRAS G12S was over 10 µM throughout.

Take `CO[C@@H](C)c1ncccc1-c1c2c3cc(ccc3n1CC(F)(F)F)-c1cc(F)cc(c1)C[C@H](NC(=O)[C@@H](COC1CN(C(=O)C#CC(C)(C)N(C)C)C1)C(C)C)C(=O)N1CCC[C@H](N1)C(=O)OCC(C)(C)C2` (atropisomer, axis not shown) [Example A348]: in experiment [1], the EC50 was under 5 µM. Moreover, the IC50 at KRAS G12D is over 10 µM; at NRAS Q61K, over 10 µM; at KRAS G12S, 1 to 10 µM.

With `CCn1c(-c2cccnc2[C@H](C)OC)c2c3cc(ccc31)-c1cccc(c1)C[C@H](NC(=O)[C@H](C(C)C)N1CO[C@]3(CCN(C(=O)C#CC(C)(C)N4CCC4)C3)C1=O)C(=O)N1CCC[C@H](N1)C(=O)OCC(C)(C)C2` (atropisomer, axis not shown) [Example A351], the EC50 in experiment [1] was under 5 µM. Further, the IC50 was in the range of 1 to 10 µM at KRAS G12D, 1 to 10 µM at NRAS Q61K and 0.1 to 1 µM at KRAS G12S.

`C=CC(=O)N1CC[C@@]2(CCN(C(=O)N(C)[C@H](C(=O)N[C@H]3Cc4nc(cs4)-c4ccc5c(c4)c(c(-c4cccnc4[C@H](C)OC)n5CC)CC(C)(C)COC(=O)[C@@H]4CCCN(N4)C3=O)C(C)C)C2)C1` (atropisomer, axis not shown) [Example A367]: in experiment [1], the EC50 was under 5 µM. Also, the IC50 at KRAS G12D is 0.1 to 1 µM; at NRAS Q61K, 0.01 to 0.1 µM; at KRAS G12S, 0.01 to 0.1 µM.
